Key:
[1] = test system: MCF-7 breast cancer cells; assay: Side-by-side growth assay versus cisplatin, MCF-7, Example 6; format: cell-based, human; conditions: for MCF-7 cell count: untreated 2.96 × 10^6
Protocol: (§1) Growth Assay: plate individual cells (human breast cancer cells MCF-7, and MDA-MB-231) at 10^4 cells/mL, 1-mL/well in MEM-10 (MEM+10% FBS, where FBS is fetal Bovine Serum) with 1/100 Penicillin/Strep. Add 1/100 volume of the above Test Solution (10 μL/mL) to triplicate wells. MCF-7 also requires 10 μg/mL insulin; MDA-MB-231 requires no insulin. Incubate cell cultures at 37° C. for 6 days and count the number of cells.
(§2) side-by-side comparison of cis-[Pt(NH3)2 PtCl(Guanosine)]Cl and cisplatin (performed by Biotherapies Incorporated of Ann Arbor, Mich.)
(§3) Test Solutions: Test solutions were prepared in the same manner as in Example 5, except, additional test solution was prepared employing cisplatin.
(§4) Growth Assay: The same method in Example 5 was used. However, the cells studied were normal human mammary cells and breast cancer cells, MCF-7.

[2] = test system: normal human mammary cells; assay: Side-by-side growth assay versus cisplatin, normal human mammary cells, Example 6; format: cell-based; conditions: for cell count, normal human mammary cells: untreated 1.00 × 10^5; for % inhibition: normal human mammary cells
Protocol: as §1, §2, §3, §4

[3] = test system: human breast cancer cells MCF-7; assay: In-vitro growth assay (cell count after 6 days), MCF-7, Example 5; format: cell-based; conditions: 37° C.; for MCF-7 cell count / % inhibition: 6 days; for MCF-7 cell count: untreated 6.70 × 10^5
Protocol: (§5) In-vitro inhibition of cancer cells by cis-[(NH3)2 PtCl(Guanosine)]Cl (performed by Biotherapies Incorporated, Ann Arbor, Mich.)
as §1

[4] = test system: human breast cancer cells MDA-MB-231; assay: In-vitro growth assay (cell count after 6 days), MDA-MB-231, Example 5; format: cell-based; conditions: 37° C.; for MDA cell count / % inhibition: 6 days; for MDA cell count: untreated 4.00 × 10^5
Protocol: as §5, §1

[5] = 0.012 mg/mL (4.00 × 10^-5 mmole/mL)
[6] = cisplatin 0.025 mg/mL (8.33 × 10^-5 mmole/mL)
[7] = 0.00025 mg/mL (4.29 × 10^-7 mmole/mL)
[8] = 0.0025 mg/mL (4.29 × 10^-6 mmole/mL)
[9] = 0.025 mg/mL (4.29 × 10^-5 mmole/mL)
[10] = 0.05 mg/mL (8.57 × 10^-5 mmole/mL)
[11] = #95001 0.025 mg/mL (4.29 × 10^-5 mmole/mL)

In the case of `N.N.[Cl][Pt][Cl]` [cisplatin, cis-diamminedichloroplatinum], the MCF-7 cell count [1, 5] is reported as 5.00 × 10^3, the “% inhibition” value ([1]; MCF-7, 0.012 mg/mL (4.00 × 10^-5 mmole/mL)) is reported as 99.8% and the “% inhibition” value ([1]; MCF-7, cisplatin 0.025 mg/mL (8.33 × 10^-5 mmole/mL)) is reported as 99.9%. For the same compound, the MCF-7 cell count [1, 6] was 5.00 × 10^3, the “cell count, normal human mammary cells” value [2, 5] was 1.00 × 10^4 and the “cell count, normal human mammary cells” value [2, 6] was 3.30 × 10^3. For the same compound, the “% inhibition” value [2, 5] was 90.0% and the “% inhibition” value [2, 6] was 99.0%.
In the case of “cis-diamminechloroguanosineplatinum chloride [cis-[Pt(NH3)2 Cl(Guanosine)]Cl]”, the MCF-7 cell count [3, 7] is reported as 6.10 × 10^5, the MCF-7 cell count [3, 8] is reported as 5.00 × 10^4 and the MCF-7 cell count [3, 9] is reported as 1.00 × 10^4. The “% inhibition” value ([3]; MCF-7, 0.00025 mg/mL (4.29 × 10^-7 mmole/mL)) was 9.0%, the “% inhibition” value ([3]; MCF-7, 0.0025 mg/mL (4.29 × 10^-6 mmole/mL)) was 92.5% and the “% inhibition” value ([3]; MCF-7, 0.025 mg/mL (4.29 × 10^-5 mmole/mL)) was 98.5%. For the same compound, the “inhibition of cell growth (in words)” value ([3]; MCF-7, 6 days) was “able to inhibit the cell growth”, the MDA cell count [4, 7] was 3.55 × 10^5 and the MDA cell count [4, 8] was 5.00 × 10^4. For the same compound, the MDA cell count [4, 9] was 1.00 × 10^4, the “% inhibition” value ([4]; MDA-MB-231, 0.00025 mg/mL (4.29 × 10^-7 mmole/mL)) was 11.3% and the “% inhibition” value ([4]; MDA-MB-231, 0.0025 mg/mL (4.29 × 10^-6 mmole/mL)) was 87.5%. The “% inhibition” value ([4]; MDA-MB-231, 0.025 mg/mL (4.29 × 10^-5 mmole/mL)) was 97.5%, the “inhibition of cell growth (in words)” value ([4]; MDA-MB-231, 6 days) was “able to inhibit the cell growth” and the MCF-7 cell count [1, 10] was 6.70 × 10^3. For the same compound, the MCF-7 cell count [1, 11] was 3.30 × 10^3, the “% inhibition” value ([1]; MCF-7, 0.05 mg/mL (8.57 × 10^-5 mmole/mL)) was 99.8% and the “% inhibition” value ([1]; MCF-7, #95001 0.025 mg/mL (4.29 × 10^-5 mmole/mL)) was 97.6%. For the same compound, the “effectiveness in killing MCF-7 cells versus cisplatin (in words)” value ([1]; ca. 8×10-5 mmole/mL) was “as effective as cisplatin in killing MCF-7 cells”, the “cell count, normal human mammary cells” value [2, 10] was 4.50 × 10^4 and the “cell count, normal human mammary cells” value [2, 11] was 9.30 × 10^4. The “toxicity to normal human mammary cells versus cisplatin (in words)” value ([2]; ca. 8×10-5 mmole/mL) was “lower than cisplatin”, the “% inhibition” value [2, 10] was 55.0% and the “% inhibition” value [2, 11] was 7.0%.

— patent US5922689A, “Cisplatin analogs for cancer treatment” (Unitech Pharmaceuticals, Inc., priority 1997, dated 1999)
